Laboratory results reported in article PMC7822816, “Halo-fluorescein for photodynamic bacteria inactivation in extremely acidic conditions” (Nature Communications, 2021).

Assays:
[1] = pH titration of halogenated fluorescein (pH0.5); assay type: physicochemical
Procedure: The pH0.5 values (the pH value when the open form reduce to the half of the maximum) of various fluorescein derivatives were determined experimentally through pH titration (Supplementary Figs. 6–16).
The pH of the solutions were adjusted through varying the ratios of citric acid and Na2HPO4 (pH 2.2–8.0), and further acidity was adjusted with concentrated HCl or 1 M NaOH. The absorption and fluorescence spectra of the resultant solutions were then collected.
Section S5. pH-dependent Properties of the Halogenated Fluoresceins.
S5.1 pH titration of halogenated fluorescein
Fluorescein derivatives (Supplementary Table 1) were dissolved in DMSO to obtain 1 mM stock solutions and then diluted with citric acid-Na2HPO4 buffer (100 mM) to 10
μM. The pH of the solutions were adjusted through varying the ratios of citric acid and Na2HPO4 (pH 2.2-8.0), and further acidity was adjusted with concentrated HCl or 1 M
NaOH. The absorption and fluorescence spectra of the resultant solutions were then

L. plantarum = experiment: Photodynamic inhibition of L. plantarum (coating plate method); assay type: cell-based, Lactobacillus plantarum

## O=C(O)c1ccccc1-c1c2cc(I)c(=O)c(I)c-2oc2c(I)c(O)c(I)cc12 [TIF, 2′,4′,5′,7′-tetraiodofluorescein]
[1]; 2% DMSO citric acid-disodium hydrogen phosphate buffer (Supplementary Table 4)
  pH0.5: 4.07
[1]; difference to fluorescein (6.09)
  lowering of pH0.5 compared with fluorescein: 2.02 units
L. plantarum; 0.5 μM, light, pH range 2.5–7.0
  antimicrobial activity at different pH: considerable antimicrobial activity
L. plantarum; no light, concentration up to 50 μM
  dark toxicity (bacteria growth): no significant inhibition of bacteria growth
L. plantarum; pH 2.5, 10 μM, irradiation 1 h
  live/dead bacterial staining (SYTO 9/propidium iodide): bright red fluorescence
  membrane integrity (SEM, TEM): obvious deformation and distortion parts
